Measurements from the CheMixHub viscosity set.

Experiment: xn = mol fraction of the nth substance listed

CC[n+]1ccn(C)c1.COS(=O)(=O)[O-] + CN1CCCC1=O
101 kPa
Conditions | viscosity [mPa·s]
298.15 K, x1 = 0.243 | 9.19
298.15 K, x1 = 0.9139 | 68.9
298.15 K, x1 = 0.9581 | 76.81
303.15 K, x1 = 0.243 | 7.33
303.15 K, x1 = 0.282 | 8.88
308.15 K, x1 = 0.282 | 6.76
308.15 K, x1 = 0.3482 | 9.45
313.15 K, x1 = 0.3482 | 8.19

ClC(Cl)Cl + CN(C)C=O
viscosity [mPa·s], 101 kPa
Conditions | 293.15 K | 303.15 K | 313.15 K | 323.15 K
x2 = 0.0512 | 0.7325 | 0.6616 | 0.6031 | –
x2 = 0.1011 | 0.7913 | 0.7089 | 0.636 | 0.5823
x2 = 0.1954 | 0.9132 | 0.8102 | – | 0.6447
x2 = 0.1955 | – | – | 0.7206 | –
x2 = 0.2975 | 1.025 | 0.901 | 0.7977 | 0.7077
x2 = 0.392 | 1.095 | 0.9598 | 0.8479 | 0.7408
x2 = 0.5008 | 1.128 | 0.9894 | 0.8735 | 0.7803
x2 = 0.5983 | 1.123 | 0.9851 | 0.8753 | 0.7856
x2 = 0.6918 | 1.091 | 0.9617 | 0.8556 | 0.7692
x2 = 0.7851 | 1.051 | 0.9294 | 0.8306 | 0.7493
x2 = 0.8951 | 0.9944 | – | 0.7921 | 0.7179
x2 = 0.8952 | – | 0.8835 | – | –

ClC(Cl)Cl + CO
viscosity [mPa·s]
Conditions | 101 kPa | 101.3 kPa
303 K, x1 = 0.096 | – | 0.5644
303 K, x1 = 0.1963 | – | 0.6289
303 K, x1 = 0.2971 | – | 0.6315
303 K, x1 = 0.4963 | – | 0.5872
303 K, x1 = 0.6952 | – | 0.5447
303 K, x1 = 0.9092 | – | 0.5211
303.15 K, x1 = 0.0499 | 0.59 | –
303.15 K, x1 = 0.1326 | 0.642 | –
303.15 K, x1 = 0.3228 | 0.653 | –
303.15 K, x1 = 0.4234 | 0.634 | –
303.15 K, x1 = 0.5123 | 0.621 | –
303.15 K, x1 = 0.6981 | 0.608 | –
303.15 K, x1 = 0.8262 | 0.61 | –
303.15 K, x2 = 0.0625 | 0.509 | 0.509
303.15 K, x2 = 0.0947 | 0.5084 | 0.5084
303.15 K, x2 = 0.1406 | 0.5099 | 0.5099
303.15 K, x2 = 0.183 | 0.5138 | 0.5138
303.15 K, x2 = 0.2165 | 0.5168 | 0.5168
303.15 K, x2 = 0.3004 | 0.5296 | 0.5296
303.15 K, x2 = 0.3311 | 0.5343 | 0.5343
303.15 K, x2 = 0.3671 | 0.5424 | 0.5424
303.15 K, x2 = 0.3854 | 0.546 | 0.546
303.15 K, x2 = 0.4503 | 0.5601 | 0.5601
303.15 K, x2 = 0.5306 | 0.5764 | 0.5764
303.15 K, x2 = 0.615 | 0.5904 | 0.5904
303.15 K, x2 = 0.7056 | 0.5975 | 0.5975
303.15 K, x2 = 0.743 | 0.5962 | 0.5962
303.15 K, x2 = 0.8147 | 0.5864 | 0.5864
303.15 K, x2 = 0.8944 | 0.5613 | 0.5613
303.15 K, x2 = 0.9355 | 0.5417 | 0.5417
303.15 K, x2 = 0.961 | 0.5281 | 0.5281
311 K, x1 = 0.096 | – | 0.5043
311 K, x1 = 0.1963 | – | 0.5549
311 K, x1 = 0.2971 | – | 0.5593
311 K, x1 = 0.4963 | – | 0.5271
311 K, x1 = 0.6952 | – | 0.4971
311 K, x1 = 0.9092 | – | 0.4822
313.15 K, x1 = 0.0499 | 0.527 | –
313.15 K, x1 = 0.1326 | 0.557 | –
313.15 K, x1 = 0.3228 | 0.566 | –
313.15 K, x1 = 0.4234 | 0.554 | –
313.15 K, x1 = 0.5123 | 0.549 | –
313.15 K, x1 = 0.6981 | 0.545 | –
313.15 K, x1 = 0.8262 | 0.55 | –
319 K, x1 = 0.096 | – | 0.4586
319 K, x1 = 0.1963 | – | 0.4932
319 K, x1 = 0.2971 | – | 0.5022
319 K, x1 = 0.4963 | – | 0.4779
319 K, x1 = 0.6952 | – | 0.4574
319 K, x1 = 0.9092 | – | 0.4489
323.15 K, x1 = 0.0499 | 0.439 | –
323.15 K, x1 = 0.1326 | 0.448 | –
323.15 K, x1 = 0.3228 | 0.451 | –
323.15 K, x1 = 0.4234 | 0.468 | –
323.15 K, x1 = 0.5123 | 0.474 | –
323.15 K, x1 = 0.6981 | 0.482 | –
323.15 K, x1 = 0.8262 | 0.496 | –
